One experiment concerns sheep erythrocytes. The experiment is described as follows: hemagglutination inhibition of sheep erythrocytes. The class given is cell-based.
Experiment [1] concerns E. coli strain mutated in its mannose binding protein (FimH). The experiment is described as follows: fluorescent staining / clustering of FimH mutant (non-mannose binding) E. coli. The class given is cell-based. The note with it: 30 minutes, OD600 1.0, washed twice with PBS. As for the experimental part:
(§1) Two bacterial strains that differed only in their mannose binding properties were used to assess whether the mannosylated PPE 22a could fluorescently stain E. coli. In addition to a strain that binds to mannose, a second strain that is mutated in its mannose binding protein (FimH) to abolish mannose binding was used. The non-functionalized polymer 21, the mannosylated polymer 22a, and 2′-fluorescein aminoethyl mannoside were individually incubated with these bacterial strains. After incubating a 1 ml bacterial suspension at an OD600 of 1.0 with the appropriate polymer or dye labeled mannose for 30 minutes, the suspensions were centrifuged to pellet the cells. The supernatant solution containing unbound polymer or dye labeled mannose was discarded and the cells were washed twice with phosphate buffered saline (PBS, pH 7.2). The bacteria were then resuspended in PBS. […]
(§2) Binding of mannosylated polymer to bacteria was imaged using laser scanning confocal microscopy and fluorescence microscopy. […]
(§3) FIGS. 8A-8B illustrate laser scanning confocal microscopy images. […] FIG. 8D is a conventional fluorescence spectra of polymer 22a in PBS (solid line) and normalized fluorescence spectra of a bacterial cluster obtained using confocal microscopy (dotted line).

Experiment [2] has as its system mannose binding (wild type) E. coli strain. The experiment in a line: fluorescent staining / clustering of mannose binding (wild type) E. coli. Format: cell-based. The settings on record: 30 minutes, OD600 1.0, washed twice with PBS. On the procedure: as §1, §2, §3
Experiment [3] is described as follows: thin film (solid phase) energy transfer / dye association assay. The class given is binding. The settings on record: for association of free dye with polymer thin films: polymers 3 and 4, thin films. As for the experimental part:
Thin film experiments with polymers 3 and 4 were also conducted in this example. Incubation with the dye-labeled streptavidin was performed in the presence of Triton X-100, a non-ionic detergent, to diminish non-specific binding. […] The spectra was scaled to 454 nm.
To perform energy transfer assays in solid phase, the following general protocol was used. The microscope coverslips were pretreated in 1,1,1,3,3,3-hexamethyldisilazane. The polymer solutions at 1 mg/ml in chloroform were spin-cast onto microscope coverslips at a spin rate of 3000 rpm for 1 minute. The coverslips were put under vacuum for 2 h, then were incubated in a solution of dye labeled streptavidin or dye for 1 h. The coverslips were then washed with deionized water, blotted dry and dried under vacuum for a minimum of 5 h. The excitation wavelength at 400 nm was chosen, and the emission spectrum was taken from 415 nm-700 nm.

Experiment [4] in a line: Stern-Volmer quenching of polymer 1 by streptavidin-free dyes. The class given is binding. The note with it: free dye added to polymer 1, 50 mM Tris buffer pH 7.4. On the procedure:
This mechanism generally requires fairly close proximity between the donor and acceptor chromophores. To study these interactions, the Stern-Volmer (KSV) quenching constants were determined from fluorescence emission and lifetime measurements in 50 mM Tris buffer at pH 7.4. Upon the addition of the streptavidin-free fluorescent dyes (fluorescein, RhB, and sulforhodamine 101, the Texas Red™ parent dye) to polymer 1, the apparent KSV values were determined to be 26,300 M^−1, 91,800 M^−1 and 97,900 M^−1, respectively. […] The dyes therefore may have an inherent affinity for the conjugated polymer backbone. A more planar conformation and greater hydrophobic character for Texas Red™, compared to RhB and fluorescein, may permit better stacking and orbital interaction with the CP backbone, allowing for greater DET. In the case of dye-labeled streptavidin, biological recognition first may bring the dyes into closer proximity with the polymer. Conformational and hydrophobic characteristics of the dyes then may tailor the extent of orbital mixing with the polymer: the flatter Texas Red™ may interact more intimately with the planar conjugated polymer backbone then the other dyes. This may favor DET and can explain the better ET that was observed, even at decreased spectral overlap between the CP donor and dye acceptor.

On to `NCCOC1O[C@H](CO)[C@@H](O)[C@H](O)[C@@H]1O` (stereo partly drawn) [2′-Aminoethyl mannoside], for which the “INHIBITING DOSE” value in the experiment with sheep erythrocytes worked out at 0.01 M.

For 2′-Fluorescein aminoethyl mannoside, the “binding / fluorescent labelling of E. coli after incubation, pelleting and washing” value in experiment [1] and in experiment [2] was “Neither polymer 21 nor the 2′-fluorescein aminoethyl mannoside appeared to bind either E. coli strain” throughout. Besides, the “INHIBITING DOSE” value in the experiment with sheep erythrocytes was determined as 0.01 M.

Consider `O=S(=O)([O-])c1cc(S(=O)(=O)O)ccc1C1=c2cc3c4c(c2Oc2c1cc1c5c2CCCN5CCC1)CCC[N+]=4CCC3` [sulforhodamine 101], for which the “association of free dye with polymer thin films” value in experiment [3] is recorded as “associated with neither”. In experiment [4], the “apparent Stern-Volmer quenching constant KSV” value is 97,900 M^−1.

For `CCN(CC)c1ccc2c(-c3ccccc3C(=O)O)c3ccc(=[N+](CC)CC)cc-3oc2c1.[Cl-]` [RhB, rhodamine B], the “association of free dye with polymer thin films” value in experiment [3] was “associated with both 3 and 4”. Moreover, in experiment [4], the “apparent Stern-Volmer quenching constant KSV” value was 91,800 M^−1.

On to “RhB-strept: rhodamine B-labeled streptavidin, about 4.6 dyes/protein”, for which the “thin film ET of dye-labeled streptavidin” value in experiment [3] (polymers 3 and 4, in the presence of Triton X-100) is “exhibited better ET than T-red-strept”.

These data come from patent publication US8617819B2, “Polymers for analyte detection” (Massachusetts Institute of Technology, priority 2004, dated 2013).
